What was measured:
plasmin (PL) = plasmin (PL) (Homo sapiens, UniProt P00747); experiment: fibrin-plate method, plasmin; format: biochemical
Source text: (§1) The inhibitory effect of the new compounds of the invention on plasmin (PL) as well as on plasmin formation induced by tissue plasminogen activator (tPA) and urokinase (UK) was examined by the fibrin-plate method [D. Bagdy et al.: Thromb. Haemost. 67, 325 (1992)]. Compounds C1 and C5 served as controls. […] V. Jackson et al.: J. Cardiovasc. Pharmacol. 21, 587 (1993))]. In Table 4 the results obtained with the new compounds 1 and 2 as well as those with controls C1 and C5 are presented as an example.

[1] = system: New Zealand white rabbits; experiment: ex vivo whole blood clotting time (WBCT) in rabbits after p.o. dosing; design: species or system rabbit; conditions: p.o. 5 mg/kg
Method: (§2) The anticoagulant and platelet aggregation inhibiting effect of the compounds of general formula (I) was studied in New Zealand white rabbits ex vivo according to D. Bagdy et al. [Thromb. Haemost. 67, 357 (1992)]. The compounds were dissolved in buffered isotonic saline solution and administered i.v. (0,04-5.0 mg/kg) or by infusion (0.25-5.0 mg/kg/h) or subcutaneously (0.5-6.0 mg/kg) or p.o. (2.5-20 mg/kg). The effect of the compounds was detectable already within 30 minutes following p.o. administration, peak values were attained after 60-180 minutes and the therapeutic level was maintained dose-dependently for 3→6 hours.
(§3) The in vivo effect of ethoxycarbonyl-3-cyclobutyl-D-alanyl-L-prolyl-L-arginine aldehyde (1) is presented in detail in Tables 6 and 7. The corresponding values of C1 are listed as controls. The compound was administered p.o. in doses of 5 mg/kg. The blood samples drawn from the caudal vein in every 30-60 minutes were analysed. The whole blood clotting time (WBCT) and the inhibition of thrombin-induced blood platelet aggregation (PAI) were determined. The activated partial thromboplastin time (APTT) and the thrombin time (TT) in the citrate plasma obtained from the blood sample were also measured. The APTT and TT values are compiled in Table 6 and the WBCT and PAI values in Table 7.

[2] = target: tissue plasminogen activator (tPA) (Homo sapiens, UniProt P00750); experiment: fibrin-plate method, plasmin formation induced by tPA; format: biochemical
Source text: as §1

[3] = system: New Zealand white rabbits; experiment: ex vivo TT in citrate plasma of rabbits after p.o. dosing; design: species or system rabbit; conditions: p.o. 5 mg/kg
Method: as §2, §3

clot-bound fXa = target: T1, clot-bound fXa (Homo sapiens, UniProt P00742); experiment: inhibition of plasma clot-bound factor Xa (Methods M1, M2); format: biochemical; conditions: text b187, well below
T1 construct: from tissue; host or cells: clot of recalcified human platelet-rich plasma
Method: Plasma-clot was obtained by recalcificating platelet-rich human plasma, and fibrin gel by clotting human fibrinogen with human thrombin. For the activity measures of fXa and thrombin Z-D-Arg-Gly-Arg-pNA or Tos-Gly-Pro-Arg-pNA substrates were used in agreement with Methods M1-M3.
Preparation of Clots from Human Plasma
a) Platelet-rich plasma is prepared by centrifuging a 9:1 mixture of human blood and 3.8% sodium citrate solution for 5 min. at 240×g.
b) 200 μl platelet-rich plasma and 80 μl 40 mM CaCl2 solution are allowed to stand at room temperature for 1 hour. The thus-formed clot is washed with 6×2 ml of 0.9% NaCl solution with gentle stirring to remove the residual enzymes (thrombin and factor Xa). The washing medium is assayed for thrombin-like activity as follows:
c) To 400 μl of washing medium 100 μl of 1 mM Tos-Gly-Pro-Arg-pNA substrate solution is added, the mixture is incubated for 30 min at 37° C., then the reaction is stopped with 100 μl of 50% acetic acid. From this mixture 150 μl aliquots are applied onto a 96-well microtitre plate and the extinction coefficients are measured at 405 nm (ELISA READER SLT Laborinstrument GmbH, Austria). […]
c) From each reaction vessel 150 μl is applied onto a 96 well microtitre plate and extinction coefficients are measured at 405 nm (ELISA READER SLT Laborinstrument GmbH, Austria). […]

[4] = fibrin plate, hydrolysed area reduced to 50% of control
[5] = related to the activity of C1 (1/IC50 = 1)

Chain of tissue plasminogen activator (tPA) (P00750 36-562, species assumed): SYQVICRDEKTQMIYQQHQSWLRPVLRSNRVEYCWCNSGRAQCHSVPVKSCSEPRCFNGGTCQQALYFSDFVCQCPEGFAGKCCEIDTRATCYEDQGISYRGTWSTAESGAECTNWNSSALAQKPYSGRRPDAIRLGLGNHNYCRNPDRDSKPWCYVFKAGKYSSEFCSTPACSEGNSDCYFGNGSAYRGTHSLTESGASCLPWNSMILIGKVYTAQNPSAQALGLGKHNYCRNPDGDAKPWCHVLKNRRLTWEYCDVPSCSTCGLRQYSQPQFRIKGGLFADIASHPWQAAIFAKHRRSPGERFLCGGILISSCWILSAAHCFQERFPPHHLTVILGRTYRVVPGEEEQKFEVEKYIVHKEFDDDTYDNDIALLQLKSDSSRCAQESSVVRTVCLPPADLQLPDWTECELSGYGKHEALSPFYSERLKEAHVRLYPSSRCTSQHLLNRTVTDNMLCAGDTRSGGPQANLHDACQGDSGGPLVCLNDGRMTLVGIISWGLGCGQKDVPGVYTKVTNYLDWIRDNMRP
Chain of plasmin (PL) (P00747 581-810 limits assumed, species assumed): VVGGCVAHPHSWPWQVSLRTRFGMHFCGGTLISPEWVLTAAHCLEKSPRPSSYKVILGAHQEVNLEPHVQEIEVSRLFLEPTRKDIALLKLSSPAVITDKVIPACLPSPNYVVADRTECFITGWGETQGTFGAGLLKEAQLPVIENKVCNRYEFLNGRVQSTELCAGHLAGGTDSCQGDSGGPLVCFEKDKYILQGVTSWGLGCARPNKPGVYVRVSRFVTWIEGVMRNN
Chain of plasmin (PL) (P00747 97-580 partner limits assumed, species assumed): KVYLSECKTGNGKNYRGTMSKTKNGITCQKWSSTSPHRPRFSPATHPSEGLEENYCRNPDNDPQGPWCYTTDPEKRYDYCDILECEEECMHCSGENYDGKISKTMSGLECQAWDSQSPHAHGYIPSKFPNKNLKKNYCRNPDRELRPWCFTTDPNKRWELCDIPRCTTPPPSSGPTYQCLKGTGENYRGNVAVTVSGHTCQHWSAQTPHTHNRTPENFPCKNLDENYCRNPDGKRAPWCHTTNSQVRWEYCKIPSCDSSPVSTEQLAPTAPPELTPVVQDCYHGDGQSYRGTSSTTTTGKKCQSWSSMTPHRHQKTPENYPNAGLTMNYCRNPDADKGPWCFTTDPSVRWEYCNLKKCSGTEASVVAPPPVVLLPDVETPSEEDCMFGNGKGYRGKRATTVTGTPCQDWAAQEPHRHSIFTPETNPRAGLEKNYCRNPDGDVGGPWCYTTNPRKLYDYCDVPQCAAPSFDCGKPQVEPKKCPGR
T1 sequence (P00742 235-488 limits assumed): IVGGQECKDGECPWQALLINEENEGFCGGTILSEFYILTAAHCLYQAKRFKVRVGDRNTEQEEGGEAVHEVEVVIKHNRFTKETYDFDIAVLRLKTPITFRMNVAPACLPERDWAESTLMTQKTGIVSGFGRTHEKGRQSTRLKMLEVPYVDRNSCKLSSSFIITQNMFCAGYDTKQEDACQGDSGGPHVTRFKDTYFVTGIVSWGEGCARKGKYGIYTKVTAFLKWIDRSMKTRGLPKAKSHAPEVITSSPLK
T1 sequence (P00742 41-179 partner limits assumed): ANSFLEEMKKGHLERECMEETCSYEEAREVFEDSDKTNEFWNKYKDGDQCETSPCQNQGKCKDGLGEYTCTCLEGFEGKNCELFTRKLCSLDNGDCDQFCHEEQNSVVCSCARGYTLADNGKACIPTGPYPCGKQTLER

Question: With CCOC(=O)N[C@H](CC1CCC1)C(=O)N1CCC[C@H]1C(=O)N[C@H](C=O)CCCNC(=N)N [Example 1, Ethoxycarbonyl-3-cyclobutyl-D-alanyl-L-prolyl-L-arginine aldehyde] as the molecule, how does the IC50 (plasmin (PL); [4]) read?
Answer: 39 µM

Question: What about the “B: relative efficiency, PL” value (plasmin (PL); [5]) of the same molecule?
Answer: 1.4

Question: And the “activity against PL, times lower than that of compound C5” value (plasmin (PL); text b147, first of three enzymes)?
Answer: 3.2 times

Question: What about the “WBCT relative clotting time” value ([1]; 0 min) of the same molecule?
Answer: 1.0

Question: And the “WBCT relative clotting time” value ([1]; 30 min)?
Answer: 1.52 ± 0.22

Question: What about the “WBCT relative clotting time” value ([1]; 45 min) of the same molecule?
Answer: 1.58 ± 0.17

Question: And the “WBCT relative clotting time” value ([1]; 60 min)?
Answer: 1.88 ± 0.45

Question: What about the “WBCT relative clotting time” value ([1]; 90 min) of the same molecule?
Answer: 1.73 ± 0.33

Question: What about the “WBCT relative clotting time” value ([1]; 120 min) of the same molecule?
Answer: 1.98 ± 0.30

Question: And the “WBCT relative clotting time” value ([1]; 180 min)?
Answer: 1.43 ± 0.13

Question: What about the “WBCT relative clotting time” value ([1]; 240 min) of the same molecule?
Answer: 1.12 ± 0.24

Question: What about the “WBCT relative clotting time” value ([1]; 300 min) of the same molecule?
Answer: 1.18 ± 0.08

Question: And the IC50 [2, 4]?
Answer: 27 µM

Question: What about the “B: relative efficiency, tPA” value [2, 5] of the same molecule?
Answer: 4.9

Question: What about the “activity against tPA, times lower than that of compound C5” value ([2]; text b147, second of three enzymes) of the same molecule?
Answer: 4.5 times

Question: What about the “TT relative clotting time” value ([3]; 0 min) of the same molecule?
Answer: 1.0

Question: What about the “TT relative clotting time” value ([3]; 30 min) of the same molecule?
Answer: 8.30 ± 5.67

Question: And the “TT relative clotting time” value ([3]; 45 min)?
Answer: 9.04 ± 5.50

Question: What about the “TT relative clotting time” value ([3]; 60 min) of the same molecule?
Answer: 9.28 ± 5.45

Question: And the “TT relative clotting time” value ([3]; 90 min)?
Answer: 13.58 ± 5.43

Question: And the “TT relative clotting time” value ([3]; 120 min)?
Answer: 16.33 ± 5.89

Question: And the “TT relative clotting time” value ([3]; 180 min)?
Answer: 6.95 ± 3.73

Question: And the “TT relative clotting time” value ([3]; 240 min)?
Answer: 2.03 ± 0.42

Question: And the “TT relative clotting time” value ([3]; 300 min)?
Answer: 1.77 ± 0.50

Question: And the IC50 (clot-bound fXa)?
Answer: < 1 µM

From patent US6235707A, “Anticoagulant peptidyl-arginine aldehyde derivatives” (Gyogyszerkutato Intezet Kft., priority 1996, dated 2001)
